Measured values published in EP1108430A1, “CALCIUM CHANNEL ANTAGONISTS” (Nippon Shinyaku Co., Ltd., priority 1998, dated 2000).

Assays:
[1] = system: nitric oxide synthase (NOS); test: cells; format: cell-based, mouse
[2] = system: dopamine release from the rat striatum; test: In vivo dopamine release from the striatum (microdialysis); details: for effect on dopamine release: rat, in vivo
Protocol: The release of dopamine from the rat striatum was measured by the in vivo microdialysis method. A microdialysis probe fitted with a microinjection cannula was inserted into the striatum of an 8∼10·week·old male SD rat and the striatum was perfused with Ringer's solution at a rate of 2 µl/min.
Beginning 2 hours after the start of perfusion, the perfusate was recovered at a 20-minute interval and the dopamine in each perfusate was measured with a high-performance liquid chromatography-electrochemical detector. The drug was perfused into the striatum through the microdialysis probe or microinjected into the striatum via the microinjection cannula. The effect of the drug on the basal dopamine release was evaluated by comparing the values before and after stimulation and a statistical analysis was made by Dunnett's test. Then, to evaluate the effect of Compound 1A on KCl·stimulated dopamine release, the amount of dopamine released in the presence of Compound 1A (10 µM) (ipsilateral striatum) was compared with the amount of KCl-stimulated dopamine release in the absence of Compound 1A (contralateral striatum) and the difference was statistically analyzed by paired t-test.
Therefore, with a microdialysis probe inserted bilaterally, one of the striatum was perfused with Ringer's solution (control side) and the other striatum with Compound 1A (10 µM). K^+ stimulation, 25∼80 mM, was consecutively given at a 20-minute interval.

L-type Ca^2+ channel = format: cell-based, mouse; details: 3∼30 µM; Dunnett's test; Fig. 1
P/Q-type Ca^2+ channel = P/Q-type Ca^2+ channel (Mus musculus, UniProt P97445); test: KCl-induced NOS activation in the presence of 1 µM nifedipine (response mediated by the P/Q-type channel); format: cell-based
[3] = system: mouse cerebral cortex-derived primary cultured neurons; test: Elevation of intracellular calcium ion concentration under high-potassium stimulation (fura-2/AM 2-wavelength fluorescence); format: cell-based; details: 1 - 30 µM; added 10 minutes before the second stimulation; Fig. 2; Dunnett's test, p<0.01
Protocol: In the dish (the bottom opening fitted with cover glass) used for the measurement of calcium ion concentration, neurons on day 5 of culture were allowed to take up the fluorescent calcium probe fura-2/AM before determination. Thus, cultured neurons were incubated in 10 mM HEPES-NaOH buffer (pH 7.05) containing 10 µM fura-2/AM, 5.4 mM KC1, 130 mM NaCl, 2.5 mM CaCl2 and 5.5 mM D-glucose at 37°C for 30 minutes to let fura-2/AM taken up in the cells. Thereafter, incubation was further continued for 30 minutes, whereby the fura-2/AM taken up in the cells was converted to fura-2 by endogenous esterase activity. […]
The calcium ion concentration was determined by the method of Grynkiewicz et al. (1985). Thus, by fluorescent microscope-image processing, the calcium ion concentration was determined from the fluorescence intensities of fura - 2/Ca^2+ at the exciting wavelengths of 340 nm and 380 nm. Using Argus-50/CA System (Hamamatsu Photonics), a calibration curve constructed beforehand was transformed to find the intracellular calcium ion concentration from the fluorescence intensity ratio.
The high-potassium stimulus was given twice, 15 minutes apart and for 15 seconds each, and the ratio of increase in free calcium ion concentration in response to the stimulations was calculated. […]

P/Q-type Ca^2+ channel, sequence (P97445 whole entry): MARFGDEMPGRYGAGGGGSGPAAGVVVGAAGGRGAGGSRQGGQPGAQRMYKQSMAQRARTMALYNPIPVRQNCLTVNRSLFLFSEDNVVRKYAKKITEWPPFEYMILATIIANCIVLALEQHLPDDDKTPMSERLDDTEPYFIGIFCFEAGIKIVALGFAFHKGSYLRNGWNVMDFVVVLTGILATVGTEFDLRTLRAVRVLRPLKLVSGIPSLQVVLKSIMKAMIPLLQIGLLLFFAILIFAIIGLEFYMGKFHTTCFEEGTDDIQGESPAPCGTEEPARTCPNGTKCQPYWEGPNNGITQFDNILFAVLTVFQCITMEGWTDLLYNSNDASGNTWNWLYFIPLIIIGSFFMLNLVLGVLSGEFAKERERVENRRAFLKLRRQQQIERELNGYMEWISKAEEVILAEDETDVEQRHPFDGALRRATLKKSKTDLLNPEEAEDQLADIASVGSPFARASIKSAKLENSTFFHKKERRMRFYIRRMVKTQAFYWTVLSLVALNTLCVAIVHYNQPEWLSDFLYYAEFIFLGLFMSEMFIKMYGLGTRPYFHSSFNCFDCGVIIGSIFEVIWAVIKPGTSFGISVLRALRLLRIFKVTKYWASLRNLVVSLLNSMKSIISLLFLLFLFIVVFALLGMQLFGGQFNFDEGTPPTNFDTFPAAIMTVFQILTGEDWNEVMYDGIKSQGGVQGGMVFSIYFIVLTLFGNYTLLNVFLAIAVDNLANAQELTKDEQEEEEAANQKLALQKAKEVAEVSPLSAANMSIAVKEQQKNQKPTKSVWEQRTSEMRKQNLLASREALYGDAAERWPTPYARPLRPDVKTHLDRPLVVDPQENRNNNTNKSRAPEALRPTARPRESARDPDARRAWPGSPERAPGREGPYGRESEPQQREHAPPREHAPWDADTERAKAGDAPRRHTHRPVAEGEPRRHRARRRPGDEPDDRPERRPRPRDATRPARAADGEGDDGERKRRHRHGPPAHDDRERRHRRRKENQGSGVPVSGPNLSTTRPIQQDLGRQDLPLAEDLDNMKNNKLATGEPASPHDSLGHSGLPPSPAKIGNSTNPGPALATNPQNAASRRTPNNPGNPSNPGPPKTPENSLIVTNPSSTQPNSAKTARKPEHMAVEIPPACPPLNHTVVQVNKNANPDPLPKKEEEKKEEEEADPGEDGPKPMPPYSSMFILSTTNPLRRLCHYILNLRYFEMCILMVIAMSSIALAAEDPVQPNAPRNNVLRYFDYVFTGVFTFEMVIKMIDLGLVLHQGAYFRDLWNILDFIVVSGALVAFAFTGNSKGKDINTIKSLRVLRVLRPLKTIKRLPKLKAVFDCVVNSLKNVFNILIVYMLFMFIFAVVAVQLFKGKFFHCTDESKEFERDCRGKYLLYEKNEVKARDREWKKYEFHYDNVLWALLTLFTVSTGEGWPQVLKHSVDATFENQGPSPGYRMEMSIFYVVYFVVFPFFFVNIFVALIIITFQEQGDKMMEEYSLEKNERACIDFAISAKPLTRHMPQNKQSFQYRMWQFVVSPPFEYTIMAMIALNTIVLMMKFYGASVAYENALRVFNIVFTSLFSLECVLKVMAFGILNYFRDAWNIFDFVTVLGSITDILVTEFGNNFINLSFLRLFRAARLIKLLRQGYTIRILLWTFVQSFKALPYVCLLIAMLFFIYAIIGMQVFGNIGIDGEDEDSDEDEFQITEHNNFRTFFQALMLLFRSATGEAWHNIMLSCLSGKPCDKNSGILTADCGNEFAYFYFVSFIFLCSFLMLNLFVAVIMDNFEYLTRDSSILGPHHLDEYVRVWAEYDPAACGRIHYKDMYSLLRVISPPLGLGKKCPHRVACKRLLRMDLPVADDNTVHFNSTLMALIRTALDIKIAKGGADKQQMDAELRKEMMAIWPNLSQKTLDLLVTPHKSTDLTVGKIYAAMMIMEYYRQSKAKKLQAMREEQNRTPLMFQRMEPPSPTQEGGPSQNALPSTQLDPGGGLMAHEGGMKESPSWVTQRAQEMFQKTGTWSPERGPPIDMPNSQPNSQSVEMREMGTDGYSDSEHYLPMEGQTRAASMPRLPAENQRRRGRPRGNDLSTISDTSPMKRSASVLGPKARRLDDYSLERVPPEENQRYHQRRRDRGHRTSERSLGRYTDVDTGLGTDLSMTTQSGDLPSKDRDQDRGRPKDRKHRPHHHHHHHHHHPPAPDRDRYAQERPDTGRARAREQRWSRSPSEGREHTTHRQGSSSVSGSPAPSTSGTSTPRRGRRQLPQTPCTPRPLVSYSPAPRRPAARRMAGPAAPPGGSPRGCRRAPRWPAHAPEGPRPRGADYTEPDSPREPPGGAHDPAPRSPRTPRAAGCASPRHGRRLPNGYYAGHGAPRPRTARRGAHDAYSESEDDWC

Question: Which “effect on the NOS activation by KCl stimulation” value ([1]; 5 µM) does the source give for ω-conotoxin GVIA [reference compound] here?
Answer: substantially no effect

Question: What about the “effect on dopamine release” value [2] of the same compound?
Answer: significant decrease (p<0.01)

Question: `COC(=O)C1=C(C)NC(C)=C(C(=O)OC)C1c1ccccc1[N+](=O)[O-]` [nifedipine] was tested. Which inhibition at 1 µM ([1]; Mus musculus, Neuron, read-out: inhibition of NOS activated on high-potassium stimulation of neurons) did it give?
Answer: ~56%

Question: Which results are given for `Cc1nc(OCCCCCN2CCCCC2)cc(-c2ccc(F)cc2)n1` [Compound 1A, 4-(4-fluorophenyl)-2-methyl-6-(5-piperidinopentyloxy)pyrimidine]?
Answer: inhibition of the NOS activation in the presence of 0.1 µM ω-agatoxin IVA (the response mediated by the L-type Ca^2+ channel) (L-type Ca^2+ channel): significant (P<0.01) and concentration-dependent inhibitions; inhibition of the response mediated by the P/Q-type Ca^2+ channel (NOS activation in the presence of 1 µM nifedipine) (P/Q-type Ca^2+ channel; 10 µM): completely inhibited; inhibition of the NOS activation in the presence of 1 µM nifedipine (the response mediated by the P/Q-type Ca^2+ channel) (P/Q-type Ca^2+ channel; 3∼30 µM, Dunnett's test, Fig. 1): significant (P<0.01) and concentration-dependent inhibitions; inhibition of the high-potassium-stimulated increase in intracellular calcium ion concentration [3]: inhibit the high-potassium-stimulated increase in intracellular calcium ion concentration in a concentration-dependent manner; inhibition of dopamine release at 80 mM KCl ([2]; 10 µM perfused into the striatum, 80 mM KCl, Fig. 3, p<0.05, paired t-test): inhibited dopamine release significantly; inhibitory effect on dopamine release under K^+ stimulation ([2]; 10 µM perfused into the striatum, K^+ stimulation 25∼80 mM at a 20-minute interval, versus contralateral control side): marked inhibitory effects on dopamine release with an increasing potassium concentration

Question: Which “inhibition of NOS activated on high-potassium stimulation of neurons” value ([1]; 0.1 µM) does the source give for ω-agatoxin IVA [reference compound] here?
Answer: about 53%

Question: What about the “effect on dopamine release” value [2] of the same compound?
Answer: significant decrease (p<0.01)
